The target of series [1] is T1, CTX-M-15 (Escherichia coli, UniProt Q9EXV5). As to conditions: for K m or K i: K m for good substrates, for poor substrates (ceftazidime, cefepime, aztreonam) determined as K i against 100 µM nitrocefin; for k cat: 50 mM phosphate buffer pH 7.0, 30°C. The protocol: The inhibitors used were Clavulanic acid, Sulabctam, Tazobactam and ZINC03787097.
Hydrolysis of β-lactam antibiotics was detected by monitoring the variation in the absorbance due to cleavage of β-lactam ring in 50 mM phosphate buffer, pH 7.0 [28]. All the measurements were taken in triplicate on Shimadzu UV-VIS spectrophotometer (UV-1800). The reaction was performed in a total volume of 500 µl at 30°C. For dilution of the enzyme and to prevent denaturation, BSA was added to a final concentration of 20 µg/ml.

Series [2] concerns E. coli DH5α (Null Plasmid). Kind of series: MIC by micro-dilution, null plasmid control strain. The following applies: Escherichia coli, read-out: MIC DH5α(Null Plasmid). The class given is cell-based. For orientation: Dilution methods test growth across graded concentrations, often in twofold steps.
The subject of series [3] is E. coli DH5α transformed with recombinant bla CTX-M-15 (pQE-2-CTX-M-15). Kind of series: MIC by micro-dilution, β-lactams alone or with inhibitors. The class given is cell-based. The following applies: for MIC: Escherichia coli, read-out: MIC DH5α(pQE-2-CTX-M-15), E. coli DH5α with bla CTX-M-15 cloned from E. cloacae EC-15; for MIC / MIC DH5α(pQE-2-CTX-M-15): in combinations clavulanic acid, sulbactam, tazobactam at 4 µg/ml, ZINC03787097 at 20 µg/ml; for MIC DH5α(pQE-2-CTX-M-15): E. coli DH5α with bla CTX-M-15 cloned from E. cloacae EC-15; for fold lowering of MIC of cefotaxime in combination with inhibitor: DH5α transformed with bla CTX-M-15. On the procedure:
E. coli DH5α and E. coli BL21 (DE3) were used for cloning and protein expression experiments, respectively. MICs were determined on E. coli DH5α transformed with cloned CTX-M-15 from Enterobacter cloacae clinical strain EC-15.
The MICs for various antibiotics alone or in combination with various inhibitors (clavulanic acid, sulbactam, tazobactam and ZINC03787097) were determined by micro-dilution method and the results were interpreted according to Clinical Laboratory Standards Institute (CLSI) guidelines. Briefly, E. coli DH5α cells transformed with CTX-M-15 was treated with increasing concentrations of the antibiotics ranging from 0.5 to 2000 µg/ml in a series of two fold dilutions. The inhibitors clavulanic acid, sulbactam and tazobactam were used at a fixed concentration of 4 µg/ml, while ZINC03787097 was used at 20 µg/ml.

The target in series [4] is T1, CTX-M-15. Kind of series: Enzyme inhibition kinetics (acylation/deacylation, competition with nitrocefin). As to conditions: for K′: dissociation constant of the Henri-Michaelis complex; for k +2 x 10^−2: first-order acylation constant, values x 10^−2.
Description: (§1) The parameters k +2, k +3 and K′ are the first-order acylation and deacylation constants, and the dissociation constant of the Henri-Michaelis complex, respectively.
(§2) where, v o, v t and v ss are the rates of utilization of the reporter substrate at times 0 and t, and after the steady-state has been established, respectively.
(§3) The individual parameters, k +2, k +3 and K′, were derived from the dependence of k i upon inhibitor concentration, [C], on the basis of the following equation: [drawing 10]
(§4) When the concentration of inhibitor [C] is well below K′, k i varies linearly the above equations is simplified as: [drawing 11]
(§5) The k +2/K′ value is then obtained from the slope of the line, whereas k +3 is given by the intercept at [C] = 0. Conversely, if [C] is much larger than K′ (K m+[S])/K m, then k i = k +2+k +3, and is independent of [C]
Series [5] addresses T1, CTX-M-15. Kind of series: IC50 determination, nitrocefin hydrolysis after 5 min pre-incubation. The class given is biochemical, Enterobacter cloacae. Also on record: His tag (inferred from the pQE-2 vector and Ni-NTA purification); made in house; host or cells: E. coli BL21 (DE3). As to conditions: IC50, 5 min pre-incubation at 30°C; 100 µM nitrocefin. The protocol: The 50% inhibitory concentration (IC50) was determined as the concentration of the inhibitor that inhibited hydrolytic activity of the enzyme by 50%.

The target of series [6] is T1, CTX-M-15. The class given is biochemical, Enterobacter cloacae. The following applies: 0.00 µM ZINC03787097; 0.50 nM CTX-M-15. On the set-up: His tag (inferred from the pQE-2 vector and Ni-NTA purification); made in house; host or cells: E. coli BL21 (DE3).
Series [7] relates to CO/N=C(\C(=O)N[C@@H]1C(=O)N2C(C(=O)O)=C(COC(N)=O)CS[C@H]12)c1ccco1. Kind of series: purified protein, by the assay type. The following applies: other: 50 mM phosphate buffer pH 7.0, 30°C.
The test system of series [8] is CO/N=C(\C(=O)N[C@@H]1C(=O)N2C(C(=O)O)=C(COC(C)=O)CS[C@H]12)c1csc(N)n1. Kind of series: purified protein, by the assay type. As to conditions: other: 50 mM phosphate buffer pH 7.0, 30°C.
The test system of series [9] is CO/N=C(\C(=O)N[C@@H]1C(=O)N2C(C(=O)O)=C(CSc3nc(=O)c(=O)[nH]n3C)CS[C@H]12)c1csc(N)n1. Kind of series: purified protein, by the assay type. The following applies: other: 50 mM phosphate buffer pH 7.0, 30°C.
Series [10] has as its system C[C@]1(Cn2ccnn2)[C@H](C(=O)O)N2C(=O)C[C@H]2S1(=O)=O. Kind of series: purified protein, by the assay type. As to conditions: other: slope of k i versus inhibitor concentration.
Description: as §1, §2, §3, §4, §5
Series [11] concerns CC1(C)S[C@@H]2[C@H](NC(=O)[C@H](N)c3ccccc3)C(=O)N2[C@H]1C(=O)O. Kind of series: purified protein, by the assay type. As to conditions: other: 50 mM phosphate buffer pH 7.0, 30°C.
For series [12], the system named is CCN1CCN(C(=O)N[C@@H](C(=O)N[C@@H]2C(=O)N3[C@@H]2SC(C)(C)[C@@H]3C(=O)O)c2ccccc2)C(=O)C1=O. Kind of series: purified protein, by the assay type. As to conditions: other: 50 mM phosphate buffer pH 7.0, 30°C.
In series [13] the test system is O=C(Cc1cccs1)N[C@@H]1C(=O)N2C(C(=O)O)=C(/C=C/c3ccc([N+](=O)[O-])cc3[N+](=O)[O-])CS[C@H]12. Kind of series: purified protein, by the assay type. The following applies: other: 50 mM phosphate buffer pH 7.0, 30°C.
In series [14] the test system is CC(C)(O/N=C(\C(=O)N[C@@H]1C(=O)N2C(C(=O)[O-])=C(C[n+]3ccccc3)CS[C@H]12)c1csc(N)n1)C(=O)O. Kind of series: purified protein, by the assay type. The following applies: other: 50 mM phosphate buffer pH 7.0, 30°C.
Setting [15] is: in combinations clavulanic acid, sulbactam, tazobactam at 4 µg/ml, ZINC03787097 at 20 µg/ml.
Where [16] appears, read: K i calculated as K i = k +3 K/k +2, calculated value.
Setting [17] is: K i, determined at steady-state, competition with 100 µM nitrocefin.

In brackets after ≈: the same amount, converted by molar mass. Read-outs that look alike come from different tables or passages of the source.

In general, MIC refers to the lowest concentration that inhibits growth of the organism. As for `CO/N=C(\C(=O)N[C@@H]1C(=O)N2C(C(=O)O)=C(CSc3nc(=O)c(=O)[nH]n3C)CS[C@H]12)c1csc(N)n1` [Ceftriaxone], the “K m or K i” value in series [1] stood at 33 ± 2 µM. The MIC in [2] (setting [15]) stood at 0.06 mg/L.

As to `C[C@H]1[C@H](NC(=O)/C(=N\OC(C)(C)C(=O)O)c2csc(N)n2)C(=O)N1S(=O)(=O)O` [Aztreonam], the MIC was determined as 16 mg/L in series [3] and 0.25 mg/L (≈ 0.574 µM) in series [2].

Take `CO/N=C(\C(=O)N[C@@H]1C(=O)N2C(C(=O)[O-])=C(C[N+]3(C)CCCC3)CS[C@H]12)c1csc(N)n1` [Cefepime]: in series [3] (listed as Cefepime (IV)), the “MIC DH5α(pQE-2-CTX-M-15)” value is 128 µg/ml. For the same compound, the MIC was 125 mg/L in [3] and 0.25 mg/L (≈ 0.52 µM) in [2].

Usually Ki stands for the equilibrium dissociation constant of an inhibitor or competing ligand from its target. The IC50 is the point on the concentration scale where inhibition reaches its midpoint. The low end stands for greater potency in that assay, the high end for weaker potency in that assay. Consider `O=C(O)[C@H]1/C(=C/CO)O[C@@H]2CC(=O)N21` [Clavulanic acid], for which the “fold lowering of MIC of cefotaxime in combination with inhibitor” value (from here on “fold lowering of MIC … with inhibitor”) in [3] was 16 fold. Besides, the Ki in series [4] (setting [16]) was 0.106 µM. Further, affinity in series [4] (setting [17]) was put at a Ki of 0.099 µM. Further, in series [4], the “K′” value is 0.72 µM and the “k +2 x 10^−2” value was 1.3 s^−1. This compound gave a half-maximal inhibitory concentration (IC50) in [5] of 0.014 µM.

In the case of `O=C(Cc1cccs1)N[C@@H]1C(=O)N2C(C(=O)O)=C(/C=C/c3ccc([N+](=O)[O-])cc3[N+](=O)[O-])CS[C@H]12` [Nitrocefin], in [1], the k cat was 582 s⁻¹ and the “K m or K i” value was 35 ± 4 µM. Also, the “K m for nitrocefin hydrolysis” value in series [6] was 42 µM.

Turning to `CC1(C)[C@H](C(=O)O)N2C(=O)C[C@H]2S1(=O)=O` [Sulbactam], in series [3], the “fold lowering of MIC … with inhibitor” value came out at 2 fold. Further, the Ki in series [4] (setting [16]) was 0.131 µM. The compound also displayed a Ki in [4] (setting [17]) of 0.062 µM. For the same compound, in series [4], the “K′” value turned out to be 0.55 µM and the “k +2 x 10^−2” value was 1.6 s^−1. This compound displayed an IC50 in series [5] of 0.212 µM.

For the compound `CC1(C)S[C@@H]2[C@H](NC(=O)[C@H](N)c3ccccc3)C(=O)N2[C@H]1C(=O)O` [Ampicillin], in series [1], the “K m or K i” value was determined as 15 ± 2 µM. In series [2] (setting [15]), the MIC amounted to 2 mg/L.

On to `CO/N=C(\C(=O)N[C@@H]1C(=O)N2C(C(=O)O)=C(COC(C)=O)CS[C@H]12)c1csc(N)n1` [Cefotaxime], for which the “K m or K i” value in series [1] turned out to be 60 ± 3 µM. The “MIC DH5α(pQE-2-CTX-M-15)” value in [3] (listed as Cefotaxime (III)) is listed as 512 µg/ml. The MIC was 500 to 1000 mg/L in series [3] and 0.25 mg/L in series [2] (setting [15]).

As to `Cc1nnc(SCC2=C(C(=O)O)N3C(=O)[C@@H](NC(=O)Cn4cnnn4)[C@H]3SC2)s1` [Cefazolin], in series [2], the MIC was 2 mg/L (≈ 4.4 µM).

On to `C[C@]1(Cn2ccnn2)[C@H](C(=O)O)N2C(=O)C[C@H]2S1(=O)=O` [Tazobactam], for which, in series [3], the “fold lowering of MIC … with inhibitor” value is 8 fold. In [3] (inhibitor in combination with β-lactam antibiotics), the “fold reduction of MICs of β-lactam antibiotics” value was 2–16 folds. Also, the figures for the Ki in series [4] (setting [16]) and in [4] (setting [17]) were 0.013 µM and 0.017 µM, respectively. The “K′” value in series [4] amounted to 0.03 µM. Also, the “k +2 x 10^−2” value in series [4] is 1.3 s^−1. In [5], this compound registered an IC50 of 0.001 µM.

Consider `CCN1CCN(C(=O)N[C@@H](C(=O)N[C@@H]2C(=O)N3[C@@H]2SC(C)(C)[C@@H]3C(=O)O)c2ccccc2)C(=O)C1=O` [Piperacillin], for which, in series [1], the “K m or K i” value stood at 32 ± 5 µM. In [2] (setting [15]), the MIC was 1 mg/L.

Usually kcat stands for the number of substrate molecules converted per active site and unit of time at saturation. In general, kcat/Km refers to the turnover number divided by the Michaelis constant. For the compound CTX-M-15 (Escherichia coli), the kcat in series [7] is 87 ± 2 s⁻¹; in series [8] it was 222 ± 7 s⁻¹; in series [9], 82 ± 5 s⁻¹; in series [11] it was 57 ± 3 s⁻¹; in [12] it was 58 ± 4 s⁻¹; in series [13], 582 s⁻¹. For the same compound, the turnover number (kcat) in series [14] stood at 1.51 ± 0.03 s⁻¹. For the same compound, the kcat/Km in series [7] stood at 3e+06 M⁻¹ s⁻¹; in [8] it was 3.7e+06 M⁻¹ s⁻¹; in [9], 2.5e+06 M⁻¹ s⁻¹; in [10], 440000 M⁻¹ s⁻¹; in series [11] it was 3.8e+06 M⁻¹ s⁻¹; in series [12], 1.8e+06 M⁻¹ s⁻¹. For the same compound, the kcat/Km is 1.66e+07 M⁻¹ s⁻¹ in series [13] and 1200 M⁻¹ s⁻¹ in series [14].

For `CO/N=C(\C(=O)N[C@@H]1C(=O)N2C(C(=O)O)=C(COC(N)=O)CS[C@H]12)c1ccco1` [Cefuroxime], in [1], the “K m or K i” value turned out to be 29 ± 2 µM. Besides, in series [2] (setting [15]), the MIC is 1 mg/L.

In the case of `CC(C)(O/N=C(\C(=O)N[C@@H]1C(=O)N2C(C(=O)[O-])=C(C[n+]3ccccc3)CS[C@H]12)c1csc(N)n1)C(=O)O` [Ceftazidime], in series [1], the k cat stood at 1.51 s⁻¹. Moreover, the “K m or K i” value in series [1] stood at 1209 µM; in series [1] (listed as Ceftazidime (III)), 1209 ± 91 µM. Moreover, the minimum inhibitory concentration (MIC) came out at 4 mg/L in series [3] and 0.25 mg/L in series [2] (setting [15]).

Regarding `CO[C@@]1(NC(=O)Cc2cccs2)C(=O)N2C(C(=O)O)=C(COC(N)=O)CS[C@@H]21` [Cefoxitin], the MIC came out at 16 mg/L in series [3] and 2 mg/L in series [2] (setting [15]).

Source of the values: paper PMC3578935, “Biochemical Characterization of CTX-M-15 from Enterobacter cloacae and Designing a Novel Non-β-Lactam-β-Lactamase Inhibitor” (PLoS ONE, 2013).
